Experimental data from patent publication US20070191267A1, “Use of tyrosine kinase inhibitors for treating cerebral ischemia” (AB SCIENCE, priority 2003, published 2007).

Target: T1, c-kit (Homo sapiens, UniProt P10721)
T1 construct: purified intracellular domain of c-kit expressed in baculovirus; made in house
Experiment: In vitro TK inhibition assay (ELISA, phosphorylation of tyrosine containing target peptide)
Assay type: biochemical
Settings: purified intracellular domain of c-kit expressed in baculovirus
Protocol: in Vitro TK Inhibition Assays
Experiments were performed using purified intracellular domain of c-kit expressed in baculovirus. Estimation of the kinase activity was assessed by the phosphorylation of tyrosine containing target peptide estimated by established ELISA assay.

T1 sequence (P10721 546-976 limits assumed): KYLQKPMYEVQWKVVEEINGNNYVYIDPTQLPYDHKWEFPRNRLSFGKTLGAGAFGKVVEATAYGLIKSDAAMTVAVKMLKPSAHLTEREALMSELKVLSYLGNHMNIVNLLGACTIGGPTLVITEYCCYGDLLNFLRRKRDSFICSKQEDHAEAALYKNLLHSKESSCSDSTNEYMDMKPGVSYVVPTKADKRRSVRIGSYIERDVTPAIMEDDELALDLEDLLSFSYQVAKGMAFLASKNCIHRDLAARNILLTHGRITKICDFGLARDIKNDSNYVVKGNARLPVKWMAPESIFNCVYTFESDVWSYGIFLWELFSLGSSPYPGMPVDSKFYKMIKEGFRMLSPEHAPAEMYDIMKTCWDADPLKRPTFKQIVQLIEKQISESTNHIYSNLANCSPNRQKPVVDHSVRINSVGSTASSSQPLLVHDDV

| SMILES | IC50 [µM] |
| --- | --- |
| Cc1ccc(NC(=O)Nc2ccccc2F)cc1Nc1nc(-c2cccnc2)cs1 [Compound 023, 1-(2-Fluoro-phenyl)-3-[4-methyl-3-(4-pyridin-3-yl-thiazol-2-ylamino)-phenyl]-urea] | < 10 |
| Cc1ccc(NC(=O)c2ccc(-c3ccncc3)cc2)cc1Nc1nc(-c2cccnc2)cs1 [Compound 053] | < 10 |
| Cc1ccc(NC(=O)c2cccc(C(F)(F)F)c2F)cc1Nc1nc(-c2cccnc2)cs1 [Compound 055, 2-Fluoro-N-[4-methyl-3-(4-pyridin-3-yl-thiazol-2-ylamino)-phenyl]-3-trifluoromethyl-benzamide] | < 10 |
| Cc1ccc(NC(=O)c2ccc(CN3CCN(C)CC3)c(F)c2)cc1Nc1nc(-c2cccnc2)cs1 [Compound 074, 3-Fluoro-4-(4-methyl-piperazin-1-ylmethyl)-N-[4-methyl-3-(4-pyridin-3-yl-thiazol-2-ylarnino)-phenyl]-benzamide] | < 10 |

System: not given
Experiment: not given
Settings: not given

| SMILES | melting point [°C] |
| --- | --- |
| Cc1ccc(NC(=O)Nc2ccccc2F)cc1Nc1nc(-c2cccnc2)cs1 [Compound 023, 1-(2-Fluoro-phenyl)-3-[4-methyl-3-(4-pyridin-3-yl-thiazol-2-ylamino)-phenyl]-urea] | 203 to 206 |
| Cc1ccc(NC(=O)Nc2cccc(F)c2)cc1Nc1nc(-c2cccnc2)cs1 [Compound 025, 1-(3-Fluoro-phenyl)-3-[4-methyl-3-(4-pyridin-3-yl-thiazol-2-ylamino)-phenyl]-urea] | 210 to 215 |
| Cc1ccc(NC(=O)Nc2ccc(C)c(Nc3nc(-c4cccnc4)cs3)c2)cc1 [Compound 026, 3-[4-Methyl-3-(4-pyridin-3-yl-thiazol-2-ylamino)-phenyl]-3-p-tolyl-urea] | 238 to 240 |
| Cc1ccc(NC(=O)c2ccc(NS(=O)(=O)c3cccs3)cc2)cc1Nc1nc(-c2cccnc2)cs1 [Compound 044, N-[4-Methyl-3-(4-pyridin-3-yl-thiazol-2-ylamino)-phenyl]-4-(thiophene-2-sulfonylamino)-benzamide] | 230 to 233 |
| Cc1ccc(NC(=O)c2cccc(F)c2)cc1Nc1nc(-c2cccnc2)cs1 [Compound 045, 3-Fluoro-N-[4-methyl-3-(4-pyridin-3-yl-thiazol-2-ylamino)-phenyl]-benzamide] | 184 to 186 |
| Cc1ccc(NC(=O)c2ccc(-c3ccncc3)cc2)cc1Nc1nc(-c2cccnc2)cs1 [Compound 046, N-[4-Methyl-3-(4-pyridin-3-yl-thiazol-2-ylamino)-phenyl]-4-pyridin-4-yl-benzamide] | 254 to 256 |
| Cc1ccc(NC(=O)c2ccc(N(C)C)cc2)cc1Nc1nc(-c2cccnc2)cs1 [Compound 047, 4-Dimethylamino-N-[4-methyl-3-(4-pyridin-3-yl-thiazol-2-ylamino)-phenyl]-benzamide] | 147 to 150 |
| Cc1ccc(F)c(C(=O)Nc2ccc(C)c(Nc3nc(-c4cccnc4)cs3)c2)c1 [Compound 048, 2-Fluoro-5-methyl-N-[4-methyl-3-(4-pyridin-3-yl-thiazol-2-ylamino)-phenyl]-benzamide] | 103 to 106 |
| Cc1ccc(NC(=O)c2ccc(C(C)(C)C)cc2)cc1Nc1nc(-c2cccnc2)cs1 [Compound 049, 4-tert-Butyl-N-[4-methyl-3-(4-pyridin-3-yl-thiazol-2-ylamino)-phenyl]-benzamide] | 145 to 150 |
| Cc1ccc(NC(=O)c2cccc(OCCN3CCOCC3)c2)cc1Nc1nc(-c2cccnc2)cs1 [Compound 052, N-[4-Methyl-3-(4-pyridin-3-yl-thiazol-2-ylamino)-phenyl]-3-(2-morpholin-4-yl-ethoxy)-benzamide] | 75 to 80 |
| Cc1ccc(NC(=O)c2cccc(N(C)C)c2)cc1Nc1nc(-c2cccnc2)cs1 [Compound 088, 3-Dimethylamino-N-[4-methyl-3-(4-pyridin-3-yl-thiazol-2-ylamino)-phenyl]-benzamide] | 197 to 198 |
| Cc1ccc(NC(=O)c2cccc(N3CCOCC3)c2)cc1Nc1nc(-c2cccnc2)cs1 [Compound 090, N-[4-Methyl-3-(4-pyridin-3-yl-thiazol-2-ylamino)-phenyl]-3-morpholin-4-yl-benzamid] | 247 to 248 |
| Cc1ccc(NC(=O)CCCN2CCOCC2)cc1Nc1nc(-c2cccnc2)cs1 [Compound 096, N-[4-Methyl-3-(4-pyridin-3-yl-thiazol-2-ylamtino)-phenyl]-4-morpholin-4-yl-butyramide] | 116 to 120 |
